The results in this text go back to ChEMBL document CHEMBL5338711, “Designing and development of phthalimides as potent anti-tubulin hybrid molecules against malaria” (Eur J Med Chem, 2022).

One may read the IC50 as the point on the concentration scale where inhibition reaches its midpoint. Usually Kd stands for the concentration at which binding is half-saturated. Broadly, the inhibition is the drop in the measured response relative to a control, in per cent.

Series [1] concerns Plasmodium falciparum. Briefly: Antimalarial activity against chloroquine-sensitive synchronized late stage trophozoite Plasmodium falciparum 3D7 infected in human RBC assessed as inhibition of plasmodial growth by giemsa staining based analysis. The settings on record: 3D7, Erythrocyte. The series is classed as functional, organism-based.
For series [2], the system named is Plasmodium berghei. Briefly: Antimalarial activity against Plasmodium berghei ANKA in BALB/c mouse injected with parasite infected erythrocytes assessed as reduction in parasitemia at 30 mg/kg, ip administered daily for 7 days and measured after 15 days. It counts as functional, organism-based. To be noted: time 15.0 day.
Series [3] in a line: Cytotoxicity against […] cell upto 500 uM. The series is classed as toxicity, cell-based. To be noted: human.
Series [4] relates to Plasmodium falciparum. Put plainly: Antimalarial activity against chloroquine-resistant synchronized late stage trophozoite Plasmodium falciparum RKL-9 infected in human RBC assessed as inhibition of plasmodial growth by giemsa staining based analysis. The series is classed as functional, organism-based. The settings on record: RKL-9, Erythrocyte.
Series [5] has as its system Plasmodium berghei. Put plainly: Antimalarial activity against Plasmodium berghei ANKA in BALB/c mouse injected with parasite infected erythrocytes assessed as decrease in parasite load at 30 mg/kg, ip administered daily for 7 days relative to control. The settings on record: time 7 day. Also on record: scale not given: the % may be the effect or the level left. The series is classed as functional.

Series [6] deals with Plasmodium falciparum. Briefly: Antimalarial activity against chloroquine-resistant Plasmodium falciparum RKL-9 infected in human RBC assessed as reduction of plasmodial growth by SYBR green dye based spectrofluorometric analysis. It counts as functional, organism-based.
In series [7] the test system is Plasmodium falciparum. Briefly: Binding affinity to recombinant N-terminal 6His tagged Plasmodium falciparum beta-tubulin expressed in Escherichia coli BL21 at 0.78 to 75 uM by SPR analysis. The settings on record: dose 0.78-75 µM. On the technique in general: In SPR one partner is held on a chip, and binding of the other changes the refractive index at the surface.

The nature of series [8]: Therapeutic index, ratio of CC50 for human HepG2 cells to IC50 for chloroquine-sensitive synchronized late stage trophozoite Plasmodium falciparum 3D7 infected in human RBC. It counts as toxicity. The settings on record: read-out: TI.
The next series concerns Erythrocyte. Put plainly: Hemolytic activity in human RBC assessed as hemolysis upto 5 uM incubated for 2 hrs. It counts as toxicity, cell-based.
Series [9] is described as follows: Cytotoxicity against human HepG2 cells. The series is classed as toxicity, cell-based.
Series [10] deals with Plasmodium falciparum. Briefly: Induction of mitochondrial membrane depolarization in trophozoite stage Plasmodium falciparum 3D7 infected in human RBC assessed as red to green fluorescence ratio at IC50 concentration incubated for 3 hrs by JC-1 dye based spectrofluorometric analysis (reference value: 6.96+/-0.94). It counts as functional.
Series [11] concerns Plasmodium falciparum. Briefly: Binding affinity to recombinant N-terminal 6His tagged Plasmodium falciparum alpha-1 tubulin expressed in Escherichia coli BL21 assessed as thermo-stabilization incubated at 4 to 80 degreeC for 3 mins followed by 5 mins incubation at room temperature by thermal shift assay. The settings on record: time 8.0 min.
The subject of series [12] is Plasmodium falciparum. Briefly: Induction of mitochondrial membrane depolarization in trophozoite stage Plasmodium falciparum 3D7 infected in human RBC assessed as decrease in red to green fluorescence ratio at IC50 concentration incubated for 3 hrs by JC-1 dye based fluorescence microscopic analysis. It counts as functional, organism-based.
Series [13] concerns Plasmodium falciparum. Briefly: Induction of mitochondrial membrane depolarization in trophozoite stage Plasmodium falciparum 3D7 infected in human RBC assessed as increase in green fluorescence at IC50 concentration incubated for 3 hrs by JC-1 dye based fluorescence microscopic analysis. It counts as functional, organism-based.
Series [14] is described as follows: Binding affinity to recombinant N-terminal 6His tagged Plasmodium falciparum alpha-1 tubulin expressed in Escherichia coli BL21 assessed as dissociation constant by SPR analysis.
Series [15] has as its system Plasmodium falciparum. Briefly: Synergistic antimalarial activity against synchronized ring stage Plasmodium falciparum 3D7 infected in human RBC assessed as mean fractional inhibitory concentration at 1:4 ratio of ART to compound incubated for 72 hrs by giemsa staining based flow cytometric analysis. It counts as functional. For orientation: Flow cytometry measures light scatter and fluorescence of single cells or particles in a stream.

Series [16] has as its system Plasmodium falciparum. Briefly: Synergistic antimalarial activity against synchronized ring stage Plasmodium falciparum 3D7 infected in human RBC assessed as mean fractional inhibitory concentration at 2:3 ratio of ART to compound incubated for 72 hrs by giemsa staining based flow cytometric analysis. It counts as functional.
Series [17] concerns Plasmodium falciparum. Put plainly: Antimalarial activity against […] infected in human RBC assessed as inhibition of plasmodial growth at 10 uM by SYBR green dye based spectrofluorometric analysis relative to control. It counts as functional. To be noted: 3D7, Erythrocyte.
Series [18] has as its system Plasmodium falciparum. Briefly: Antimalarial activity against […] infected in human RBC assessed as inhibition of plasmodial growth at 1 uM by SYBR green dye based spectrofluorometric analysis relative to control. It counts as functional. The settings on record: 3D7, Erythrocyte.
For series [19], the system named is Plasmodium falciparum. Put plainly: Antiplasmodial activity against synchronized ring stage Plasmodium falciparum 3D7 infected in human RBC assessed as defect in invasion stage by measuring merozoites sticking on the red blood cell surface at IC50 concentration measured after 60 hrs by giemsa staining based light microscopic analysis. It counts as functional, organism-based.

For series [20], the system named is Plasmodium berghei. Put plainly: Antimalarial activity against Plasmodium berghei ANKA in BALB/c mouse injected with parasite infected erythrocytes assessed as […] mean survival time at 30 mg/kg, ip administered daily for 7 days and measured after 15 days. The series is classed as functional. To be noted: time 15 day.

The structures appear in SMILES notation. Active and inactive are the calls of the source. The rule behind the calls is not given here.

As for `CCC(C)[C@H](c1nc2ccccc2n1Cc1cn(-c2ccc(C(F)(F)F)cc2)nn1)N1C(=O)c2ccccc2C1=O` (stereo partly specified), the IC50 with Plasmodium falciparum [1] is 640 nM; in the series with Plasmodium falciparum [4], 1620 nM; in series [9], more than 100000 nM. The result in the series with Plasmodium berghei [2], with Plasmodium falciparum [11], in the series with Plasmodium falciparum [12], with Plasmodium falciparum [13] and in the series on Plasmodium falciparum [19] was Active. The Activity entry is “Non-Toxic” in series [3]; 2.1% in the series on Plasmodium berghei [5]; “Dose dependent effect” in the series on Plasmodium falciparum [6]; “Non-Toxic” in the series on Erythrocyte; 4.61 with Plasmodium falciparum [10]. The result in the series on Plasmodium falciparum [7] was inactive. The selectivity ratio in series [8] came out at 156. Also, the Kd in [14] turned out to be 26400 nM. Besides, the results for the FIC with Plasmodium falciparum [15] and in the series with Plasmodium falciparum [16] were 0.67 and 0.86, respectively. In addition, the inhibition at 10 µM in the series with Plasmodium falciparum [17] is 68%. In addition, in the series on Plasmodium falciparum [18], the inhibition at 1 µM worked out at 45%. The MST in the series with Plasmodium berghei [20] was found to be 11.42 days.
